According to BindingDB's records for doi:10.1016/s0960-894x(98)00444-2 (Wayne State University, 1999):

Target: Prothrombin (Homo sapiens, UniProt P00734)
Experiment: ChEBML_216950
Method: Dissociation constant was evaluated by competitive inhibition of alpha-thrombin using the method of Dixon enzyme assay.

C1=[N+]2c3ccccc3C=[N+]3c4ccccc4C=[N+]4c5ccccc5C[N](c5ccccc51)[Pd]234 (stereo unspecified) [Palladium analogue]
Ki: 170 µM
